Reference: ChEMBL document CHEMBL1201862, “PubChem BioAssay data set” (2004)
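Dose response: 5 concentrations. Exposure: 48 h. Format: 96-well plates. Endpoint: linear interpolation; highest concentration if not reached. GI50: concentration for 50% inhibition of growth.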 The source made the active and inactive calls. Rule as the data show it: active = GI50 up to about 1.1 µM and inactive = higher. Where a SMILES comes first, the peptide text is derived from it. The star is where a group is joined. Cbz = O=C(OCc1ccccc1)*

Legend:
Assay in all cases: NCI anticancer screen, dose series, 48 h
Hs-578T = test system: Hs-578T
MDA-N = test system: MDA-N
DMS-273 = test system: DMS-273
HOP-18 = test system: HOP-18
KM-20L2 = test system: KM-20L2
LXFL 529 = test system: LXFL 529
DLD-1 = test system: DLD-1
XF498 = test system: XF498

Compound	GI50 (Hs-578T)	GI50 (MDA-N)	other results
CC(C)(C)OC(=O)C1=C(N)N(Cc2ccccc2)C2(C)C=CC(=O)C=C12 (centres undefined)	14.5 µM (inactive)	4.79 µM (inactive)	
N=c1oc2ccccc2cc1C(=O)Nc1cccc2ccccc12	> 100 µM (inactive)	> 100 µM (inactive)	
CCOC(=O)C(NC(=O)CC)(N1CCN(c2cc3c(cc2F)c(=O)c(C(=O)O)cn3C2CC2)CC1)C(F)(F)F (centres undefined)	> 100 µM (inactive)	> 100 µM (inactive)	
CCOC(=O)Cc1csc(Nc2ccccc2[N+](=O)[O-])n1			GI50 (DMS-273): 99.1 µM (inactive); GI50 (HOP-18): > 100 µM (inactive); GI50 (KM-20L2): > 100 µM (inactive); GI50 (LXFL 529): > 100 µM (inactive)
O=[N+]([O-])/C(C(Cl)=C(Cl)Cl)=C(\Nc1ccccc1)n1nnc2ccccc21	20.6 µM (inactive)	54.8 µM (inactive)	
O=C1/C(=C2\Sc3c(ccc(Cl)c3Cl)C2=O)Sc2c1ccc(Cl)c2Cl	> 100 µM (inactive)	> 100 µM (inactive)	
Cc1nc2ccc(S(=O)(=O)Nc3ccccc3)cc2c(=O)n1NC(=O)CNc1ccccc1	> 100 µM (inactive)	> 100 µM (inactive)	
O=C(Cc1nc2ccccc2s1)C(=O)Nc1ccc(Cl)cc1			GI50 (DLD-1): > 100 µM (inactive); GI50 (DMS-273): > 100 µM (inactive); GI50 (HOP-18): > 100 µM (inactive); GI50 (KM-20L2): > 100 µM (inactive); GI50 (LXFL 529): > 100 µM (inactive)
CC1C=C(OC(=O)c2ccccc2)C(=O)C(n2cc(F)c(=O)[nH]c2=O)O1 (centres undefined)			GI50 (DLD-1): 22.8 µM (inactive); GI50 (DMS-273): 42.8 µM (inactive); GI50 (HOP-18): > 100 µM (inactive); GI50 (KM-20L2): 94.6 µM (inactive); GI50 (LXFL 529): 56 µM (inactive); GI50 (XF498): 48.1 µM (inactive)
Cc1cc2c([N+](=O)[O-])cc3c(c2o1)C(=O)C=CC3=O	18.5 µM (inactive)	14.5 µM (inactive)	
C/C(=C\c1ccccc1)C(=O)NCc1ccc(C(=O)NCCc2c[nH]c3ccccc23)cc1		> 100 µM (inactive)	
Cc1ccc(S(=O)(=O)NNC(=S)Nc2cccc3ccccc23)cc1	97.5 µM (inactive)	55.3 µM (inactive)	
O=C1C2CC(Cl)C(SSC3CC4C(=O)N(SC(Cl)(Cl)C(Cl)Cl)C(=O)C4CC3Cl)CC2C(=O)N1SC(Cl)(Cl)C(Cl)Cl (centres undefined)	2.37 µM (inactive)	1.7 µM (inactive)	
COC(=O)c1cc(C#N)[nH]c1-c1ccc(Br)s1	5.74 µM (inactive)	13.7 µM (inactive)	
CCCC[C@@H]1CCN2C[C@@H](O)[C@@H](O)[C@H]2[C@@H]1O	> 100 µM (inactive)		
NC(CCCCNCc1ccccc1O)C(=O)O (centres undefined)			GI50 (DLD-1): > 100 µM (inactive); GI50 (DMS-273): > 100 µM (inactive); GI50 (HOP-18): > 100 µM (inactive); GI50 (KM-20L2): > 100 µM (inactive); GI50 (LXFL 529): > 100 µM (inactive)
COc1cc(C=C2C(C)=NN(c3cccc(Cl)c3)C23SCC(=O)N3c2nc3ccccc3s2)ccc1O (centres undefined)	9.46 µM (inactive)	31.5 µM (inactive)	
CC(=O)O[C@H]1CC[C@@]2(C)C(=CC[C@H]3C(CC#N)[C@@](C)(C#N)CCC32)C1 (some centres undefined)			GI50 (DLD-1): > 100 µM (inactive); GI50 (DMS-273): > 100 µM (inactive); GI50 (KM-20L2): > 100 µM (inactive); GI50 (LXFL 529): > 100 µM (inactive); GI50 (XF498): > 100 µM (inactive)
COc1ccc(NC(=O)CC2S/C(=N\c3ccccc3C)NC2=O)c([N+](=O)[O-])c1 (centres undefined)			GI50 (DLD-1): > 100 µM (inactive); GI50 (DMS-273): > 100 µM (inactive); GI50 (KM-20L2): > 100 µM (inactive); GI50 (LXFL 529): > 100 µM (inactive); GI50 (XF498): > 100 µM (inactive)
C1=N\CCN2CCN(CC/N=C\c3ccccc3OCc3cccc(n3)COc3ccccc3/1)CC2	1.38 µM (inactive)	1.11 µM (active)	
CC1(C)OC(=O)CC12CCN(Cc1ccccc1)CC2	> 100 µM (inactive)	> 100 µM (inactive)	
O=C1CCCCC/C1=C\c1ccc([N+](=O)[O-])cc1		42.4 µM (inactive)	
CC(=O)Oc1ccc(/C=C/C(=O)NCC(NC(=O)/C=C/c2ccc(OC(C)=O)c(OC(C)=O)c2)C(=O)O)cc1OC(C)=O (centres undefined)	> 100 µM (inactive)	> 100 µM (inactive)	
CCc1nc(N)nc(N)c1-c1ccc(NCCc2ccccc2)c([N+](=O)[O-])c1	9.66 µM (inactive)	0.195 µM (active)	
C[n+]1ccc(Nc2ccc(NC(=O)c3ccc(Nc4cc[n+](C)c5ccc([N+](=O)[O-])cc45)cc3[N+](=O)[O-])cc2)cc1			GI50 (DLD-1): > 86.7 µM (inactive); GI50 (DMS-273): 27.2 µM (inactive); GI50 (HOP-18): 20.5 µM (inactive); GI50 (KM-20L2): > 100 µM (inactive); GI50 (LXFL 529): 15.8 µM (inactive); GI50 (XF498): 33.5 µM (inactive)
CCOC(=O)C1(C#N)C(=O)c2cc[n+](CC[n+]3ccc4c(c3)C(=O)C(C#N)(C(=O)OCC)C4=O)cc2C1=O (centres undefined)	> 100 µM (inactive)	64.1 µM (inactive)	
Cc1cnc2[nH]c(-c3cccc(F)c3)cc(=O)c2c1	0.0121 µM (active)	0.0112 µM (active)	
COC(=O)C(CC(C)C)NC(=O)C(CCCNC(=N)N)NC(=O)OCc1ccccc1 (stereo not drawn) (Cbz-Arg-Leu-OMe; configuration not given here)	> 100 µM (inactive)	> 100 µM (inactive)	
O=c1cc(-c2ccc(O)cc2)oc2cc(O[C@@H]3O[C@H](CO)[C@@H](O)[C@H](O)[C@H]3O)cc(O)c12 [APIGETRIN]	40 µM (inactive)	46 µM (inactive)	
O=C(Nc1cccc(C(F)(F)F)c1)c1cc(Br)cc(Br)c1O [FLUOROSALAN]	3.4 µM (inactive)	3.69 µM (inactive)	
